Results reported in patent US9273319B2, “Molecular switches and methods for making and using the same” (The Johns Hopkins University, priority 2002, dated 2016).
In brackets after ≈: the same amount, converted by molar mass.

target: T1, T164-165 β-lactamase: maltose binding protein (MBP) fusion (Escherichia coli, UniProt P0AEX9, INS191[…]); assay: Effect of sugars on the T164-165 fusion's hydrolysis of nitrocefin (FIG. 8); assay type: biochemical, E. coli; settings: 150 μM nitrocefin, 5 mM of the indicated sugar
T1 construct: made in house; host or cells: E. coli (library selected in malE auxotroph PM9F'; derivative of plasmid pDIMC8-Mal, IPTG-inducible lac promoter)
Experimental: The fusion comprises an insertion of β-lactamase amino acid sequences into an MBP acceptor polypeptide with a tandem duplication of amino acids 164-165 of MBP at the insertion site. The velocity of nitrocefin hydrolysis with 150 μM nitrocefin and 5 mM of the indicated sugars was compared to the velocity without any sugar. […] All sugars known to bind to wildtype MBP and induce a conformational change (maltose, maltotriose and maltohexose) increase the rate of hydrolysis by approximately 40%.
Although MBP can bind many other linear maltodextrins, cyclodextrins and reduced or oxidized variants thereof, only those ligands which, induce a conformational change in MBP (Hall, et al. (1997) J. Biol. Chem. 272(28): 17605-17609; Ball, et al. (1997) J. Biol. Chem. 272(28): 17610-17614) behaved as a switch (see, FIG. 8).

Molecule | increase of rate of nitrocefin hydrolysis compared to velocity without any sugar
OC[C@H]1O[C@H](O[C@H]2[C@H](O)[C@@H](O)C(O)O[C@@H]2CO)[C@H](O)[C@@H](O)[C@@H]1O (mixture of isomers) [maltose] | approximately 40%
OC[C@@H](O)[C@@H](O[C@H]1O[C@H](CO)[C@@H](O)[C@H](O)[C@H]1O)[C@H](O)[C@@H](O)CO [maltitol] | did not have a significant effect
OC[C@H]1O[C@H](O[C@H]2[C@H](O)[C@@H](O)[C@@H](O[C@H]3[C@H](O)[C@@H](O)[C@@H](O[C@H]4[C@H](O)[C@@H](O)[C@@H](O[C@H]5[C@H](O)[C@@H](O)[C@@H](O[C@H]6[C@H](O)[C@@H](O)C(O)O[C@@H]6CO)O[C@@H]5CO)O[C@@H]4CO)O[C@@H]3CO)O[C@@H]2CO)[C@H](O)[C@@H](O)[C@@H]1O (stereo partly shown) [maltohexose] | approximately 40%
OC[C@H]1O[C@@](CO)(O[C@H]2O[C@H](CO)[C@@H](O)[C@H](O)[C@H]2O)[C@@H](O)[C@@H]1O [sucrose] | did not have a significant effect
OC[C@H]1O[C@@H]2O[C@H]3[C@H](O)[C@@H](O)[C@@H](O[C@H]4[C@H](O)[C@@H](O)[C@@H](O[C@H]5[C@H](O)[C@@H](O)[C@@H](O[C@H]6[C@H](O)[C@@H](O)[C@@H](O[C@H]7[C@H](O)[C@@H](O)[C@@H](O[C@H]8[C@H](O)[C@@H](O)[C@@H](O[C@H]1[C@H](O)[C@H]2O)O[C@@H]8CO)O[C@@H]7CO)O[C@@H]6CO)O[C@@H]5CO)O[C@@H]4CO)O[C@@H]3CO [β-cyclodextrin] | did not have a significant effect
maltotriose | approximately 40%

tested on: DH5α/pDIMC8-Mal; assay: MIC for ampicillin on LB plates; assay type: cell-based, E. coli; settings: Escherichia coli
From the text: The E. coli […] was cloned into plasmid pDIMC8 (Ostermeier and Benkovic, 1999, Nat Biotechnol. 17:1205-1209) under control of the IPTG inducible lac promoter to create plasmid […].

Molecule | MIC [µg/mL]
CC1(C)S[C@@H]2[C@H](NC(=O)[C@H](N)c3ccccc3)C(=O)N2[C@H]1C(=O)O [ampicillin] | 30 to 35 (≈ 85.9 to 100 µM)
